Experimental data published in ChEMBL document CHEMBL3600349 (Bioorg Med Chem Lett, 2015).
pIC50: −log10 of the molar value.

Key:
[1] = Half life in rat liver microsomes; format: ADME
[2] = Intrinsic clearance in human hepatocytes assessed per 10^6 cells; format: ADME, cell-based, Hepatocyte; conditions: read-out: CLH
[3] = Lipophilicity, log P of the compound by HPLC analysis; format: physicochemical
[4] = target: Melanin-concentrating hormone receptor 1 (Homo sapiens, UniProt Q99705); test: Displacement of [125I]-MCH from human MCH-R1 expressed in CHO/Galpha16 cells after 60 mins by scintillation counting; format: cell-based
[5] = target: hERG (KCNH2) (Homo sapiens, UniProt Q12809); test: Inhibition of human ERG at 10 uM by patch clamp assay
[6] = tested on: U-937; test: Toxicity in human U937 cells assessed as first effect concentration for phospholipidosis by nile red uptake assay; format: cell-based

Chain of Melanin-concentrating hormone receptor 1 (Q99705 whole entry): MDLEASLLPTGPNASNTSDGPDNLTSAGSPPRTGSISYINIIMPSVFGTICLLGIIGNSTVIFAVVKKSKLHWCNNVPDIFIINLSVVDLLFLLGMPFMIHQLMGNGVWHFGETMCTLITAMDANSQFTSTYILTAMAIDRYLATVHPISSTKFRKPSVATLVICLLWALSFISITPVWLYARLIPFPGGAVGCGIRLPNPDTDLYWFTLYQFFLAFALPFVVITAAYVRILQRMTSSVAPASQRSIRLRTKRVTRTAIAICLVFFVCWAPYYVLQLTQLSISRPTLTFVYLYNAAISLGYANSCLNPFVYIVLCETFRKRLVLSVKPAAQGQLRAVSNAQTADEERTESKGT
Chain of hERG (KCNH2) (Q12809 whole entry): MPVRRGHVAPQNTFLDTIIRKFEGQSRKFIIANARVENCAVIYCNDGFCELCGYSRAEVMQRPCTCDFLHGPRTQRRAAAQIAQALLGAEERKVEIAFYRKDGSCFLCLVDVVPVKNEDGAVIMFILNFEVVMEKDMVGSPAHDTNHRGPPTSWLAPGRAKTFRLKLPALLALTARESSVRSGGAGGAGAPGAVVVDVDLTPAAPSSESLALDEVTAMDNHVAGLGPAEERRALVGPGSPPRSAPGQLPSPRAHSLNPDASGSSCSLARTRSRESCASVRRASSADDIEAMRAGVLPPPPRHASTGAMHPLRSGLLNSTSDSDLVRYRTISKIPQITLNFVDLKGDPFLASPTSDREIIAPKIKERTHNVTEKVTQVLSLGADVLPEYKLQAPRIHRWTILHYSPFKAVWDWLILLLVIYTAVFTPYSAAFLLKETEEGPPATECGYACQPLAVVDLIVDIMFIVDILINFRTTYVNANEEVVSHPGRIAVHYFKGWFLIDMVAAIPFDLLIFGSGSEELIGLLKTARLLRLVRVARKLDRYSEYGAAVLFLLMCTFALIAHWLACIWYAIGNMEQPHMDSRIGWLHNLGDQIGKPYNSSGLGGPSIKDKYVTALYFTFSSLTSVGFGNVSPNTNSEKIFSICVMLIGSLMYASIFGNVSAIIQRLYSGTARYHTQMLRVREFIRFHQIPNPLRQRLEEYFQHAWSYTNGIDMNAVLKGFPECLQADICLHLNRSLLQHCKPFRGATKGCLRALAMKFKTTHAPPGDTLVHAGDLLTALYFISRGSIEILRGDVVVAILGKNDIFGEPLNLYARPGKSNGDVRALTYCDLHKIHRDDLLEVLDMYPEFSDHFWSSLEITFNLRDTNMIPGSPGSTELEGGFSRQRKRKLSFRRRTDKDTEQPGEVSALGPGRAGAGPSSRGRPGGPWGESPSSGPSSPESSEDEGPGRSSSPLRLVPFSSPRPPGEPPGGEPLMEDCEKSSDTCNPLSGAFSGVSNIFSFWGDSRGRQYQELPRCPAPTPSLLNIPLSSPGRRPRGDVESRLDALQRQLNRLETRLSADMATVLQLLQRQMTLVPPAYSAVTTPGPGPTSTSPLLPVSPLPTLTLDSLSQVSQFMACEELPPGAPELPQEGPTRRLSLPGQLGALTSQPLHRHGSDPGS

SMILES | half-life [1] [min] | hepatocyte CLint [2] [µL/min/1e6 cells] | logP [3] | pIC50 [4] | inhibition at 10 µM [5] [%] | Activity [6] [µM]
CN(C)Cc1ccc(C(=O)Cn2ccc(OCc3ccc(Cl)cn3)cc2=O)cc1 | > 45 | 69 | 2.3 | 7.39 | – | –
CN(C)Cc1ccc(C(=O)Cn2ncc(OCc3ccc(Cl)cn3)cc2=O)cc1 | 14 | – | 2.9 | 7.60 | 39 | 50
CN(C)Cc1ccc(C(=O)Cn2ccc(OCc3ccc(Br)cn3)cc2=O)cc1 | 32 | 66 | 2.5 | 7.55 | – | –
Cc1cc(CN(C)C)ccc1C(=O)Cn1ccc(OCc2ccc(Br)cn2)cc1=O | 45 | 21 | 2.8 | – | 42 | 50
